Test results as given in patent US20250345426A1, “METHODS FOR MAKING AND USING THERAPEUTIC CELLS” (THE REGENTS OF THE UNIVERSITY OF CALIFORNIA, priority 2022, published 2025).

How the values were obtained:
rituximab CAR-T cells [1] = assay: Antigen-independent activation and exhaustion marker expression by flow cytometry, rituximab CAR-T cells; assay type: cell-based, human; conditions: for measures of antigen-independent CAR-T cell activation: FIG. 1B-D (markers, TNF-α, cell division), MYCi975 2 μM
Text: FIG. 1A-G. Pharmacological inhibition of PI3K/AKT pathway modulates antigen-independent CAR-T cell activation. (A) Table of pharmacological inhibitors used during ex vivo expansion of rituximab CAR-T cells (left). Simplified schematic of the PI3K/AKT signaling axis where black arrows represent activation (right). (B) Activation marker expression by CAR^+ T cells in the absence of antigen stimulation after 5 days of pharmacological modulation. Data bars indicate the means of technical triplicates±1 S.D. The bars in FIG. 1B represent data from, untreated, vehicle, CAL-101, AZD5363, Rapamycin, MYCi975, and Betulin, respectively, from left to right. (C) TNF-α production CAR^+ T cells in the absence of antigen stimulation as quantified by intracellular flow cytometry. Data bars indicate the means of technical triplicates±1 S.D. The bars in FIG. 1B and FIG. 1C represent data from, untreated, vehicle, CAL-101, AZD5363, Rapamycin, MYCi975, and Betulin, respectively, from left to right. (D) Proliferation of CAR^+ T cells stained with CellTrace Violet (CTV) dye was assayed after a 4-day culture in the absence of target cells or exogenous cytokines. Data shown in the histogram correspond to one of technical triplicates shown in the bar graph. The bars FIG. 1D represent data from, EGFRt, untreated, vehicle, CAL-101, AZD5363, Rapamycin, MYCi975, and Betulin, respectively, from left to right. (E) % distribution of T-cell subtypes in CAR^+ T cells after 5 days of pharmacological modulation. Data bars indicate the means of technical triplicates±1 S.D. (F) Rituximab CAR-T cell fold expansion after 6 days of inhibitor culture was tracked. T-cell fold expansion was normalized to the untreated control with each data point representing biological replicates collected from healthy donors. The bars FIG. 1F represent data from, EGFRt, vehicle, CAL-101, AZD5363, Rapamycin, MYCi975, and Betulin, respectively, from left to right. (G) A 24-hr lysis assay of CD20 CAR-T cells against Raji target cells at three effector-to-target (E:T) ratios. Data bars indicate the means of technical triplicates±1 S.D. Percent lysis was normalized to cell counts in target-only wells. […] In (B)-(F), results are representative two independent experiments using cells from of two heathy donors. Statistical significance in panels B, C, and D was determined by two-tailed Student's t test with Sidak correction for multiple comparisons. * p<0.05, ** p<0.01, *** p<0.001, n.s. not statistically significant. […]
Antibody staining for flow-cytometry analysis. EGFRt expression was measured with biotinylated cetuximab (Eli Lilly; biotinylated in-house), followed by PE-conjugated streptavidin (Jackson ImmunoResearch #016-110-084). CAR expression was quantified by surface epitope staining using anti-Fc (Alexa Fluor 488, Jackson ImmunoResearch #709-546-098). Antigen-independent activation-marker expression of CAR-T cells was evaluated by antibody staining for CD137 (PE/Cy7, clone 4B4-1, BioLegend #309818), and PD-1 (FITC, clone EH12.2H7, BioLegend #329904) on Days 18 (i.e., 18 days after Dynabead addition and 11 days after Dynabead removal) and after 5-6 days of inhibitor culture (FIG. 1, FIG. 3). T-cell subtype of CAR-T cells was evaluated by antibody staining for CD45RO (VioBlue®, clone REA611, Miltenyi #130-119-620) and CD62L (APC, clone DREG56, Invitrogen #17-0629-42) after 5-6 days of inhibitor culture (FIG. 1, FIG. 3). […]

rituximab CAR-T cells [2] = assay: Antigen-independent CAR-T cell metabolic activity, rituximab CAR-T cells (data not shown); assay type: cell-based, human
Text: Cell line generation and maintenance. HEK 293T and Raji cells were obtained from ATCC. Leu16 and rituximab scFv-expressing HEK293T cell lines were generated by retroviral transduction of HEK293T cells to express each scFv fused with EGFP via a 2A peptide, and EGFP+ cells were sorted by fluorescence-activated cell sorting (FACS) on a FACSAria (II) cell sorter (BD Bioscience) at the UCLA Flow Cytometry Core Facility. CD20+K562 cells were generated by transduction of K562 cells with a retroviral construct encoding full-length CD20. K562 cells with varying CD20 expression levels were generated by FACS sorting of CD20+K562 into bins of different antigen densities. CHLA-255-Luc-EGFP cells were generated by retroviral transduction of CHLA-255-Luc to express EGFP, and EGFP+ cells were enriched by FACS. HEK 293T cells were cultured in DMEM (HyClone) supplemented with 10% heat-inactivated FBS (HI-FBS; ThermoFisher). CHLA-255-Luc-EGFP cells were cultured in IMDM (ThermoFisher) with 10% HI-FBS. Primary human T cells, Raji, and K562 cells were cultured in RPMI-1640 (Lonza) with 10% HI-FBS. For CAR-T cells used in metabolomics studies, T cells were cultured in RPMI-1640 containing 2 g/L of 1,2-13C-glucose with 10% heat-inactivated dialyzed FBS (HI-dFBS).

Raji target cells = assay: 24-hr lysis assay of inhibitor-treated rituximab CD20 CAR-T cells against Raji; assay type: cell-based; conditions: three E:T ratios, vs vehicle-treated
Text: FIG. 1A-G. Pharmacological inhibition of PI3K/AKT pathway modulates antigen-independent CAR-T cell activation. (A) Table of pharmacological inhibitors used during ex vivo expansion of rituximab CAR-T cells (left). Simplified schematic of the PI3K/AKT signaling axis where black arrows represent activation (right). (B) Activation marker expression by CAR^+ T cells in the absence of antigen stimulation after 5 days of pharmacological modulation. Data bars indicate the means of technical triplicates±1 S.D. The bars in FIG. 1B represent data from, untreated, vehicle, CAL-101, AZD5363, Rapamycin, MYCi975, and Betulin, respectively, from left to right. (C) TNF-α production CAR^+ T cells in the absence of antigen stimulation as quantified by intracellular flow cytometry. Data bars indicate the means of technical triplicates±1 S.D. The bars in FIG. 1B and FIG. 1C represent data from, untreated, vehicle, CAL-101, AZD5363, Rapamycin, MYCi975, and Betulin, respectively, from left to right. (D) Proliferation of CAR^+ T cells stained with CellTrace Violet (CTV) dye was assayed after a 4-day culture in the absence of target cells or exogenous cytokines. Data shown in the histogram correspond to one of technical triplicates shown in the bar graph. The bars FIG. 1D represent data from, EGFRt, untreated, vehicle, CAL-101, AZD5363, Rapamycin, MYCi975, and Betulin, respectively, from left to right. (E) % distribution of T-cell subtypes in CAR^+ T cells after 5 days of pharmacological modulation. Data bars indicate the means of technical triplicates±1 S.D. (F) Rituximab CAR-T cell fold expansion after 6 days of inhibitor culture was tracked. […] Statistical significance in panels B, C, and D was determined by two-tailed Student's t test with Sidak correction for multiple comparisons. * p<0.05, ** p<0.01, *** p<0.001, n.s. not statistically significant.
Cytotoxicity assay with Raji cells. […] Remaining target cells were quantified by MACSQuant VYB flow cytometer 24-hr post co-incubation.

| Compound | tonic signaling (rituximab CAR-T cells [1]) | measures of antigen-independent CAR-T cell activation (rituximab CAR-T cells [1]) | antigen-independent CAR-T cell metabolic activity (rituximab CAR-T cells [2]) | lysis of Raji tumor cells (Raji target cells) |
| --- | --- | --- | --- | --- |
| C=C(C)[C@@H]1CC[C@]2(CO)CC[C@]3(C)[C@H](CC[C@@H]4[C@@]5(C)CC[C@H](O)C(C)(C)[C@@H]5CC[C@]43C)[C@@H]12 [betulin, Betulin] | increased | increased most measures | increases | clustered together |
| MYCi975 | increased | increased most measures | – | clustered together |
